# According to patent US5380729A, “12-hetero substituted 6,11-ethano-6,11-dihydrobenzo (b) quinolizinium salts and compositions and method of use thereof” (Sterling Winthrop Inc., priority 1993, dated 1995):
# Test system: PCP recognition sites
# Assay: [3H]TCP Radioreceptor Assay (internal screen)
# Assay type: binding, rat (male Sprague-Dawley
# Settings: @ 10 μM; rat whole brain membranes; room temperature, 25 min
# Protocol: [^3 H]TCP Radioreceptor Assay (internal screen)
# [^3 H]TCP binding to PCP recognition sites was performed as described by Vignon et al. Brain Research 1983, 280, 194°197. Male Sprague-Dawley rats were sacrificed by decapitation, and whole brains were homogenized in 10 volumes (wt/vol) of cold Tris-HCl buffer (50 mM, pH 7.7) using a Brinkmann Polytron (setting 6, 30 sec). The homogenate was centrifuged at 40,000×g for 10 min at 4° C. The supernatant was decanted, and the homogenization and centrifugation steps were repeated twice as described above. Following this, the pellet was resuspended in Tris-HCl (5 mM, pH 7.7) at a tissue concentration of 0.5°0.75 g/ml, and one ml aliquots were frozen at -70° C. until use. The binding characteristics for PCP recognition sites were not altered by the freezing of membrane suspensions.
# On the day of the assay, membrane aliquots were thawed, resuspended in fresh 5 mM Tris-HCl buffer at a tissue concentration of 1 mg/ml, and stored on ice until use. Each assay tube contained 100 μl of [^3 H]TCP at a final concentration of approximately 1 nM, 100 μl of various concentrations of the compounds of interest, 500 μl of the tissue suspension and 300 of buffer to a final assay volume of 1 ml and a final protein concentration of 0.5 mg/tube. Non-specific binding was defined by addition of a final concentration of 100 μM PCP to blank tubes. All tubes were incubated at room temperature for 25 min before termination of the reaction by rapid filtration over Whatman GF/B glass fiber filters that had been presoaked in a solution of 0.5% polyethylenimine for at least 1 hr prior to use. Filters were washed with three 4 ml volumes of cold Tris buffer. Following addition of scintillation cocktail, the amount of bound radioactivity was determined by liquid scintillation spectrometry using a Beckman LS 5000TA liquid scintillation counter with an efficiency for tritium of approximately 55% . Inhibition constants (Ki values) were calculated using the EBDA/LIGAND program (McPherson, J. Pharmacol. Meth. 1985, 14, 213-228), purchased from Elsevier/Biosoft, Inc. Results are reported as Ki values or as a percent (%) inhibition of binding at 10
row,SMILES,"Percent inhibition, [3H]TCP (internal screen)"
1,"CC1(C)C2c3ccccc3C(c3cccc[n+]32)C12O[C@H](COCc1ccccc1)[C@@H](COCc1ccccc1)O2 (stereo partly drawn) [Example 9, 12,12-(1R,2R-dibenzyloxymethyl-ethanediolketal)-13,13-dimethyl-6,11-ethano-6,11-dihydrobenzo[b]quinolizinium perchlorate]",11%
2,"CCOC1(OCC)C2c3c(C(C)(C)C)ccc(OC(C)=O)c3C([n+]3ccccc32)C1(C)C.[O-][Cl+3]([O-])([O-])[O-] (stereo not shown) [Example 58, 6,11-ethano-12,12-diethoxy-13,13-dimethyl-7-acetoxy-10-t-butyl-6,11-dihydrobenzo[b]quinolizinium perchlorate]",12%
3,"CCOC1(OCC)C2c3c(OC)ccc(OC)c3C([n+]3ccccc32)C1(C)C.[O-][Cl+3]([O-])([O-])[O-] (stereo not shown) [Example 52, 6,11-ethano-12,12-diethoxy-13,13-dimethyl-7,10-dimethoxy-6,11-dihydrobenzo[b]quinolizinium perchlorate]",33%

# Same assay, conditions: rat whole brain membranes; ~1 nM [3H]TCP; room temperature, 25 min
row,SMILES,Ki
1,"CCN(CC)C1C2c3ccccc3C(C1C)[n+]1ccccc12 (single isomer, unassigned) [Example 61, 6,11-ethano-12-(diethyl) amino-13-methyl-6,11-dihydrobenzo[b]quinolizinium diperchlorate]",5420 nM
2,"CCOC1(OCC)C2c3c(OC(C)=O)cccc3C([n+]3ccccc32)C1(C)C.[O-][Cl+3]([O-])([O-])[O-] (stereo not shown) [15(a), 10-acetoxy-12,12-diethoxy-13,13-dimethyl-6,11-ethano-6,11-dihydrobenzo[b]quinolizinium perchlorate]",26.4 nM
3,"CCOC1(OCC)C2c3c(Br)cccc3C([n+]3ccccc32)C1(C)C (stereo not shown) [Example 30, 6,11-ethano-12,12-diethoxy-13,13-dimethyl-10-bromo-6,11-dihydrobenzo[b]quinolizinium chloride]",107 nM
4,"CCOC1(OCC)C2c3ccccc3C([n+]3ccccc32)C1(C)C (stereo not shown) [Example 4, 12,12-diethoxy-13,13-dimethyl-6,11-ethano-6,11-dihydrobenzo[b]quinolizinium camphanate]",5.66 nM
5,"CCOC1(OCC)C2c3ccc(OC)cc3C([n+]3ccccc32)C1(C)C (stereo not shown) [25(b), 6,11-ethano-12,12-diethoxy-13,13-dimethyl-8-methoxy-6,11-dihydrobenzo[b]quinolizinium chloride]",147 nM
6,"CCOC1(OCC)C2c3ccccc3C(C1C)[n+]1ccccc12.[O-][Cl+3]([O-])([O-])[O-] (stereo not shown) [63(d), 12,12-Diethoxy-13-methyl-6,11-ethano-6,11-dihydrobenzo[b]quinolizinium perchlorate]",49.3 nM
7,"CCOC1(OCC)C2(C)c3c(OC)cccc3C([n+]3ccccc32)C1(C)C.[O-][Cl+3]([O-])([O-])[O-] (stereo not shown) [Example 32, 6,11-ethano-12,12-diethoxy-13,13-dimethyl-10-methoxy-11-methyl-6,11-dihydrobenzo[b]quinolizinium perchlorate]",63.7 nM
8,"C[C@@H]1C[C@@H](C)OC2(O1)C1c3ccccc3C([n+]3ccccc31)C2(C)C (single isomer, unassigned) [Example 10(b)]",614 nM
9,"CCOC1(OCC)CC2c3ccccc3C1c1cccc[n+]12 (stereo not shown) [63(a), 12,12-Diethoxy-6,11-ethano-6,11-dihydrobenzo[b]quinolizinium bromide]",3590 nM
10,"CCOC1(OCC)C2c3c(O)cccc3C([n+]3ccccc32)C1(C)C.[O-][Cl+3]([O-])([O-])[O-] (stereo not shown) [15(b), 10-hydroxy-12,12-diethoxy-13,13-dimethyl-6,11-ethano-6,11-dihydrobenzo[b]quinolizinium perchlorate]",7.87 nM
11,"CCOC1(OCC)C2c3cccc(C)c3C(C1C)[n+]1ccccc12.[O-][Cl+3]([O-])([O-])[O-] (stereo not shown) [63(k), 7-Methyl-12,12-diethoxy-13-methyl-6,11-ethano-6,11-dihydrobenzo[b]quinolizinium perchlorate]",2460 nM
12,"CCOC1(OCC)C2c3cccc(C)c3C([n+]3ccccc32)C1(C)C (stereo not shown) [Example 55, 6,11-ethano-12,12-diethoxy-13,13-dimethyl-7-methyl-6,11-dihydrobenzo[b]quinolizinium chloride]",455 nM
13,"CCOC1(OCC)C2c3c(OC)cccc3C([n+]3ccccc32)C1(C)C (stereo not shown) [19(b), 10-methoxy-12,12-diethoxy-13-13-dimethyl-6,11-ethano-6,11-dihydrobenzo[b]quinolizinium perchlorate]",13.2 nM
14,"CCOC1(OCC)C2c3c(ccc4c3OCO4)C([n+]3ccccc32)C1(C)C.[O-][Cl+3]([O-])([O-])[O-] (stereo not shown) [Example 31, 6,11-ethano-12,12-diethoxy-13,13-dimethyl-9,10-methylenedioxy-6,11-dihydrobenzo[b]quinolizinium perchlorate]",7.42 nM
15,"CCN(CC)C1C2c3ccccc3C([n+]3ccccc32)C1(C)C (stereo not shown) [Example 44, 6,11-ethano-12-(diethyl) amino-13,13-dimethyl-6,11-dihydrobenzo[b]quinolizinium diperchlorate]",501 nM
16,"CC1(C)C2c3ccccc3C(c3cccc[n+]32)C12OCCCO2 (stereo not shown) [22(b), 6,11-ethano-12,12-(1,3-propanediolketal)-13,13-dimethyl-6,11-dihydrobenzo[b]quinolizinium chloride]",3300 nM
17,"CCOC1(OCC)C2c3c(F)cc(F)cc3C([n+]3ccccc32)C1(C)C (stereo not shown) [24(b), 6,11-ethano-12,12-diethoxy-13,13-dimethyl-8,10-difluoro-6,11-dihydrobenzo-[b]quinolizinium chloride]",272 nM
18,"CCOC1(OCC)C2c3ccccc3C([n+]3ccccc32)C1(C)C (single isomer, unassigned) [7(b), 12,12-diethoxy-13,13-dimethyl-6,11-ethano-6,11-dihydrobenzo[b]quinolizinium·-[(-)-DBT]]",14.1 nM
19,"CC1(C)C2c3ccccc3C(c3cccc[n+]32)C12OCCO2 (stereo not shown) [Example 18, 12,..12-(1; 2-ethanediolketal)-13,13-dimethyl-6,11-ethano-6,11-dihydrobenzo[b]quinolizinium perchlorate]",4000 nM
20,"CCOC1C2c3ccccc3C([n+]3ccccc32)C1(C)C.[O-][Cl+3]([O-])([O-])[O-] (stereo not shown) [Example 48, 6,11-ethano-12-ethoxy-13,13-dimethyl-6,11-dihydrobenzo[b]quinolizinium perchlorate]",2150 nM
21,"CCOC1(OCC)C2c3cccc(OC)c3C([n+]3ccccc32)C1(C)C (stereo not shown) [Example 16, 7-methoxy-12,12-diethoxy-13,13-dimethyl-6,11-ethano-6,11-dihydrobenzo[b]quinolizinium hexafluorophosphate]",1870 nM
22,"CCOC1(OCC)C2c3ccccc3C([n+]3ccccc32)C1(C)C (stereo not shown) [Example 3, 12,12-diethoxy-13,13-dimethyl-6,11-ethano-6,11-dihydrobenzo[b]quinolizinium hexafluorophosphate]",5.56 nM
23,"CCOC1(OCC)C2c3cc(Cl)ccc3C([n+]3ccccc32)C1(C)C.[O-][Cl+3]([O-])([O-])[O-] (stereo not shown) [Example 26, 6,11-ethano-12,12-diethoxy-13,13-dimethyl-9-chloro-6,11-dihydrobenzo[b]quinolizinium perchlorate]",12.4 nM
24,"COC1(O[Si](C)(C)C)C2c3ccccc3C([n+]3ccccc32)C1(C)C.[O-][Cl+3]([O-])([O-])[O-] (stereo not shown) [Example 40, 6,11-ethano-12-methoxy-12-trimethylsilyloxy-13,13-dimethyl-6,11-dihydrobenzo[b]quinolizinium perchlorate]",1600 nM
25,"CCOC1(OCC)C2c3c(O)cccc3C([n+]3ccccc32)C1(C)C (stereo not shown) [15(c), 10-hydroxy-12,12-diethoxy-13,13-dimethyl-6,11-ethano-6,11-dihydrobenzo[b]quinolizinium chloride]",6.9 nM
26,"CCOC1C2c3ccccc3C([n+]3ccccc32)C1(C)C (single isomer, unassigned) [Example 49, 6,11-ethano-12-ethoxy-13,13-dimethyl-6,11-dihydrorbenzo[b]quinolizinium perchlorate]",515 nM
27,"CCOC1(OCC)C2c3ccccc3C(C1Br)[n+]1ccccc12.[O-][Cl+3]([O-])([O-])[O-] (stereo not shown) [Example 36, 6,11-ethano-12,12-diethoxy-13-bromo-6,11-dihydrobenzo[b]quinolizinium perchlorate]",20.4 nM

# Same assay, conditions: rat whole brain membranes; ~1 nM [3H]TCP; room temperature, 25 min; hydrate
row,SMILES,Ki
1,"C[C@@H]1C[C@@H](C)OC2(O1)C1c3ccccc3C([n+]3ccccc31)C2(C)C (stereo partly drawn) [Example 11, 12,12-(2R,4R-pentanediolketal)-13,13-dimethyl-6,11-ethano-6,11-dihydrobenzo[b]-quinolizinium chloride·1/2 hydrate]",497 nM
